The text below walks through data of patent US20130303509A1, “NAMPT INHIBITORS” (AbbVie Inc., priority 2012, published 2013).

The structures appear in SMILES notation.

The experiment deals with PC3 cells. Kind of experiment: NAMPT Cell Proliferation Assay. It is filed as cell-based. As to conditions: Homo sapiens, PC-3, 120 h, 5 days incubation, cell viability by Cell Titer Glo. The protocol:
NAMPT Cell Proliferation Assay
PC3 cells were seeded in 96-well black plates (Corning #3904) at 500 cells)Owell in 90 µl of RPMI media containing 10% heat-inactivated FBS and incubated overnight at 37° C. and 5% CO2 to allow cells to attach to wells. The following day, test compounds were serially diluted in neat DMSO to 1000× final concentrations prior to dilution with RPMI media to 10× and 1% DMSO. […] of the 10× compounds were then transferred to wells containing cells to produce a dose response of 10-fold dilutions from […] to 1×10^−[…]. Cells were incubated for 5 days at 37° C. and 5% CO2, then cell viability was measured using Cell Titer Glo reagent (Promega #G7571). Percent inhibition values were calculated and fitted to a sigmoidal dose response curves using Assay Explorer software to determine IC50s.
`CCC(=O)N1CCC(Oc2ccc(NC(=O)C3CN(c4cccnc4)C3)cc2)CC1` [Example 65, N-{4-[(1-propanoylpiperidin-4-yl)oxy]phenyl}-1-(pyridin-3-yl)azetidine-3-carboxamide] showed a concentration for half-maximal inhibition (IC50) of 6.38 nM.

Turning to `CC1(C(=O)N2CCC(Oc3ccc(NC(=O)C4CN(c5cccnc5)C4)cc3)CC2)CC1` [Example 66, N-[4-({1-[(1-methylcyclopropyl)carbonyl]piperidin-4-yl}oxy)phenyl]-1-(pyridin-3-yl)azetidine-3-carboxamide], inhibition was half-maximal at 5.81 nM (IC50).

Regarding `CN(C)CCC(=O)N1CCC(Oc2ccc(NC(=O)C3CN(c4cccnc4)C3)cc2)CC1` [Example 67, N-(4-{[1-(N,N-dimethyl-beta-alanyl)piperidin-4-yl]oxy}phenyl)-1-(pyridin-3-yl)azetidine-3-carboxamide], the IC50 was 386 nM.

`O=C(Nc1ccc(OC2CCN(C(=O)c3nccs3)CC2)cc1)C1CN(c2cccnc2)C1` [Example 68, 1-(pyridin-3-yl)-N-(4-{[1-(1,3-thiazol-2-ylcarbonyl)piperidin-4-yl]oxy}phenyl)azetidine-3-carboxamide]: the concentration for half-maximal inhibition (IC50) was 3.54 nM.

`O=C(Nc1ccc(OC2CCN(C(=O)CC3CCCC3)CC2)cc1)C1CN(c2cccnc2)C1` [Example 69, N-(4-{[1-(cyclopentylacetyl)piperidin-4-yl]oxy}phenyl)-1-(pyridin-3-yl)azetidine-3-carboxamide]: the half-maximal inhibitory concentration (IC50) is 4.22 nM. This IC50 and that of the compound before are within 1.5-fold of each other.

As to `CC(C)C(C)C(=O)N1CCC(Oc2ccc(NC(=O)C3CN(c4cccnc4)C3)cc2)CC1` (centres unmarked) [Example 70, N-(4-{[1-(2,3-dimethylbutanoyl)piperidin-4-yl]oxy}phenyl)-1-(pyridin-3-yl)azetidine-3-carboxamide], the IC50 came out at 3.97 nM.

`Cc1ncccc1N1CC(C(=O)Nc2ccc(C3CCN(C(=O)C(C)(C)O)CC3)cc2)C1` [Example 71, N-{4-[1-(2-hydroxy-2-methylpropanoyl)piperidin-4-yl]phenyl}-1-(2-methylpyridin-3-yl)azetidine-3-carboxamide] registered a half-maximal inhibitory concentration (IC50) of 72.9 nM.

Regarding `Cc1ccncc1N1CC(C(=O)Nc2ccc(C3CCN(C(=O)C(C)(C)O)CC3)cc2)C1` [Example 72, N-{4-[1-(2-hydroxy-2-methylpropanoyl)piperidin-4-yl]phenyl}-1-(4-methylpyridin-3-yl)azetidine-3-carboxamide], the half-inhibitory concentration (IC50) amounted to 5.69 nM.

`COc1ncccc1N1CC(C(=O)Nc2ccc(C3CCN(C(=O)C(C)(C)O)CC3)cc2)C1` [Example 73, N-{4-[1-(2-hydroxy-2-methylpropanoyl)piperidin-4-yl]phenyl}-1-(2-methoxypyridin-3-yl)azetidine-3-carboxamide] displayed a 50% inhibitory concentration (IC50) of 1980 nM.

With `O=C(Nc1ccc(OC2CCN(CC3CC3)CC2)cc1)C1CN(c2cccnc2)C1` [Example 74, N-(4-{[1-(cyclopropylmethyl)piperidin-4-yl]oxy}phenyl)-1-(pyridin-3-yl)azetidine-3-carboxamide], the half-inhibitory concentration (IC50) turned out to be 11.4 nM.

Compound `CC(C)CN1CCC(Oc2ccc(NC(=O)C3CN(c4cccnc4)C3)cc2)CC1` [Example 76, N-(4-{[1-(2-methylpropyl)piperidin-4-yl]oxy}phenyl)-1-(pyridin-3-yl)azetidine-3-carboxamide] returned an IC50 of 19.1 nM.

`CCC(CC)CN1CCC(Oc2ccc(NC(=O)C3CN(c4cccnc4)C3)cc2)CC1` [Example 78, N-(4-{[1-(2-ethylbutyl)piperidin-4-yl]oxy}phenyl)-1-(pyridin-3-yl)azetidine-3-carboxamide] returned a half-maximal inhibitory concentration (IC50) of 21.2 nM.

Turning to `CCC(C)CN1CCC(Oc2ccc(NC(=O)C3CN(c4cccnc4)C3)cc2)CC1` (centres unmarked) [Example 80, N-(4-{[1-(2-methylbutyl)piperidin-4-yl]oxy}phenyl)-1-(pyridin-3-yl)azetidine-3-carboxamide], the IC50 was determined as 25.5 nM.

`O=C(Nc1ccc(OC2CCN(CCC3CC3)CC2)cc1)C1CN(c2cccnc2)C1` [Example 82, N-(4-{[1-(2-cyclopropylethyl)piperidin-4-yl]oxy}phenyl)-1-(pyridin-3-yl)azetidine-3-carboxamide] returned an IC50 of 9.55 nM. Against the preceding compound, the IC50 is about 2.7-fold lower.

Compound `CCC(C)(C)CN1CCC(Oc2ccc(NC(=O)C3CN(c4cccnc4)C3)cc2)CC1` [Example 84, N-(4-{[1-(2,2-dimethylbutyl)piperidin-4-yl]oxy}phenyl)-1-(pyridin-3-yl)azetidine-3-carboxamide] showed an IC50 of 38.9 nM. This IC50 is about 4.1-fold higher than that of the compound before.

Regarding `CC(C)(O)C(=O)N1CCC(c2ccc(NC(=O)C3CN(c4ccnnc4)C3)cc2)CC1` [Example 85, N-{4-[1-(2-hydroxy-2-methylpropanoyl)piperidin-4-yl]phenyl}-1-(pyridazin-4-yl)azetidine-3-carboxamide], inhibition was half-maximal at 20.5 nM (IC50).

In the case of `O=C(Nc1ccc(C2CCN(CC3CCCCC3)CC2)cc1)C1CN(c2cccnc2)C1` [Example 86, N-{4-[1-(cyclohexylmethyl)piperidin-4-yl]phenyl}-1-(pyridin-3-yl)azetidine-3-carboxamide], the half-maximal inhibitory concentration (IC50) stood at 69.7 nM.

In turn, `CC(C)(C)CCN1CCC(c2ccc(NC(=O)C3CN(c4cccnc4)C3)cc2)CC1` [Example 87, N-{4-[1-(3,3-dimethylbutyl)piperidin-4-yl]phenyl}-1-(pyridin-3-yl)azetidine-3-carboxamide] gave an IC50 of 31.7 nM.

Compound `O=C(Nc1ccc(C2CCN(CC3CCCC3)CC2)cc1)C1CN(c2cccnc2)C1` [Example 88, N-{4-[1-(cyclopentylmethyl)piperidin-4-yl]phenyl}-1-(pyridin-3-yl)azetidine-3-carboxamide] came in with an IC50 of 66.3 nM.

`CCC(C)(C)CN1CCC(c2ccc(NC(=O)C3CN(c4cccnc4)C3)cc2)CC1` [Example 89, N-{4-[1-(2,2-dimethylbutyl)piperidin-4-yl]phenyl}-1-(pyridin-3-yl)azetidine-3-carboxamide] registered a 50% inhibitory concentration (IC50) of 64.6 nM.

On to `CCCC(C)CN1CCC(c2ccc(NC(=O)C3CN(c4cccnc4)C3)cc2)CC1` (centres unmarked) [Example 90, N-{4-[1-(2-methylpentyl)piperidin-4-yl]phenyl}-1-(pyridin-3-yl)azetidine-3-carboxamide], for which half-maximal inhibition (IC50) required 60.1 nM.

Compound `CCCCN1CCC(c2ccc(NC(=O)C3CN(c4cccnc4)C3)cc2)CC1` [Example 91, N-[4-(1-butylpiperidin-4-yl)phenyl]-1-(pyridin-3-yl)azetidine-3-carboxamide] displayed a concentration for half-maximal inhibition (IC50) of 59.9 nM.

`CCC(CC)CN1CCC(c2ccc(NC(=O)C3CN(c4cccnc4)C3)cc2)CC1` [Example 92, N-{4-[1-(2-ethylbutyl)piperidin-4-yl]phenyl}-1-(pyridin-3-yl)azetidine-3-carboxamide] displayed an IC50 of 24 nM.

As to `CC(C)CCN1CCC(c2ccc(NC(=O)C3CN(c4cccnc4)C3)cc2)CC1` [Example 93, N-{4-[1-(3-methylbutyl)piperidin-4-yl]phenyl}-1-(pyridin-3-yl)azetidine-3-carboxamide], the IC50 came to 58.4 nM.

`CC(C)CN1CCC(c2ccc(NC(=O)C3CN(c4cccnc4)C3)cc2)CC1` [Example 94, N-{4-[1-(2-methylpropyl)piperidin-4-yl]phenyl}-1-(pyridin-3-yl)azetidine-3-carboxamide] displayed an IC50 of 65.7 nM. The IC50 values of the last two compounds are within 1.5-fold of each other.

For `CCCN1CCC(c2ccc(NC(=O)C3CN(c4cccnc4)C3)cc2)CC1` [Example 95, N-[4-(1-propylpiperidin-4-yl)phenyl]-1-(pyridin-3-yl)azetidine-3-carboxamide], inhibition was half-maximal at 73.9 nM (IC50).
